Experimental data reported in patent US8080657B2, “Compounds of reverse turn mimetics and the use thereof” (Choongwae Pharma Corporation, priority 2008, dated 2011).

system: Wnt signaling; assay: TopFlash reporter gene bioassay in SW480 cells; assay type: cell-based; conditions: Homo sapiens, SW480, TopFlash reporter gene assay, inhibition of Wnt signaling; read-out: RGA, IC50 (μM) TopF

Structure (SMILES)	IC50 [µM]
C=CCN1CC(=O)N2[C@@H](Cc3ccc(O)cc3)C(=O)N(Cc3cccc(C(=O)N(C)C)n3)C[C@@H]2N1C(=O)NCc1ccccc1 [compound 197]	21.8 ± 3.69
C=CCN1CC(=O)N2[C@@H](Cc3ccc(ON)cc3)C(=O)N(Cc3ccc(OC)c(Cl)c3)C[C@@H]2N1C(=O)NCc1ccccc1 [compound 147]	1.99 ± 0.32
C=CCN1CC(=O)N2[C@@H](Cc3ccc(O)cc3)C(=O)N(Cc3cccc(C(=O)Nc4cc[nH]n4)c3)C[C@@H]2N1C(=O)NCc1ccccc1 [compound 260]	8.43 ± 2.07
C=CCN1CC(=O)N2[C@@H](Cc3ccc(O)cc3)C(=O)N(Cc3cccc(OC)c3OS(=O)(=O)c3ccc(Cl)cc3)C[C@@H]2N1C(=O)NCc1ccccc1 [compound 105]	1.27 ± 0.24
C=CCN1CC(=O)N2[C@@H](Cc3ccc(O)cc3)C(=O)N(Cc3cccc4ccn(Cc5cccc([N+](=O)[O-])c5)c34)C[C@@H]2N1C(=O)NCc1ccccc1 [compound 204]	3.13 ± 0.44
C=CCN1CC(=O)N2[C@@H](Cc3ccc(O)cc3)C(=O)N(Cc3cccc(C(=O)NCCOC)c3)C[C@@H]2N1C(=O)NCc1ccccc1 [compound 91]	1.04 ± 0.18
C=CCN1CC(=O)N2[C@@H](Cc3ccc(NC(N)=O)cc3)C(=O)N(Cc3cccc4scnc34)C[C@@H]2N1C(=O)NCc1ccccc1 [compound 162]	15.1 ± 3.34
C=CCN1CC(=O)N2[C@@H](Cc3ccc(O)cc3)C(=O)N(Cc3ccc(F)c4scnc34)C[C@@H]2N1C(=O)NCc1ccc(C)cc1 [compound 103]	1.26 ± 0.19
C=CCN1CC(=O)N2[C@@H](Cc3ccc(O)cc3)C(=O)N(Cc3cccc(OC)c3OC3Cc4ccccc4C3)C[C@@H]2N1C(=O)NCc1ccccc1 [compound 226]	4.33 ± 0.5
CN1CC(=O)N2[C@@H](Cc3ccc(O)cc3)C(=O)N(Cc3cccc4scnc34)C[C@@H]2N1C(=O)NCc1ccccc1 [compound 232]	4.97 ± 0.73
C=CCN1CC(=O)N2[C@@H](Cc3ccc(O)cc3F)C(=O)N(Cc3ccc(F)cc3F)C[C@@H]2N1C(=O)NCc1ccccc1 [compound 74]	0.91 ± 0.11
C=CCN1CC(=O)N2[C@@H](Cc3ccc(O)cc3)C(=O)N(Cc3csc4ccc(NCc5ccccc5)cc34)C[C@@H]2N1C(=O)NCc1ccccc1 [compound 55]	0.74 ± 0.08
C=CCN1CC(=O)N2[C@@H](Cc3ccc(O)cc3)C(=O)N(Cc3ccc(OC)c(-c4cccnc4)c3)C[C@@H]2N1C(=O)NCc1ccccc1 [compound 208]	3.27 ± 0.8
C=CCN1CC(=O)N2[C@@H](Cc3ccc(O)cc3)C(=O)N(Cc3cccc(N(C)C(=O)OC)c3)C[C@@H]2N1C(=O)NCc1ccccc1 [compound 109]	1.35 ± 0.15
C=CCN1CC(=O)N2[C@@H](Cc3ccc(O)cc3)C(=O)N(Cc3ccc(C(C)(C)C)cc3)C[C@@H]2N1C(=O)NCc1ccccc1 [compound 236]	41.7 ± 4.2
C=CCN1CC(=O)N2[C@@H](Cc3ccc(O)cc3)C(=O)N(Cc3csc4cc(NC(N)=O)ccc34)C[C@@H]2N1C(=O)NCc1ccccc1 [compound 201]	26.1 ± 7.1
C=CCN1CC(=O)N2[C@@H](Cc3ccc(O)cc3)C(=O)N(Cc3cccc(C(=O)NCC4CCCCC4)c3)C[C@@H]2N1C(=O)NCc1ccccc1 [compound 101]	1.24 ± 0.07
C=CCN1CC(=O)N2[C@@H](Cc3ccc(O)cc3)C(=O)N(Cc3cccc(-c4ccc(OC)nc4)c3)C[C@@H]2N1C(=O)NCc1ccccc1 [compound 121]	1.53 ± 0.17
C=CCOc1cccc(CN2C[C@H]3N(C(=O)CN(CC=C)N3C(=O)NCc3ccccc3)[C@@H](Cc3ccc(O)cc3)C2=O)c1 [compound 169]	2.01 ± 0.34
C=CCN1CC(=O)N2[C@@H](Cc3ccc(O)cc3)C(=O)N(Cc3cc4c(cc3[N+](=O)[O-])OCO4)C[C@@H]2N1C(=O)NCc1ccccc1 [compound 244]	5.98 ± 1.03
C=CCN1CC(=O)N2[C@@H](Cc3ccc(O)cc3)C(=O)N(Cc3cccc(OC)c3Oc3cccc(F)c3)C[C@@H]2N1C(=O)NCc1ccccc1 [compound 252]	7.05 ± 0.87
C=CCN1CC(=O)N2[C@@H](Cc3ccc(O)cc3C)C(=O)N(Cc3ccc(F)cc3F)C[C@@H]2N1C(=O)NCc1ccccc1 [compound 196]	21.2 ± 2.15
C=CCN1CC(=O)N2[C@@H](Cc3ccc(O)cc3)C(=O)N(Cc3cccc(OC)c3OCC3CC3)C[C@@H]2N1C(=O)NCc1ccccc1 [compound 79]	0.95 ± 0.21
C=CCN1CC(=O)N2[C@@H](Cc3ccc(O)cc3)C(=O)N(Cc3cccc(-c4cccc(OC)c4)c3)C[C@@H]2N1C(=O)NCc1ccccc1 [compound 137]	1.86 ± 0.3
C=CCN1CC(=O)N2[C@@H](Cc3ccc(O)cc3)C(=O)N(Cc3ccc(F)c4scnc34)C[C@@H]2N1C(=O)NCc1ccc(F)c(F)c1 [compound 80]	0.96 ± 0.13

Further lines, results first:

IC50 [µM]	Structure (SMILES)
1.43 ± 0.27	C=CCN1CC(=O)N2[C@@H](Cc3ccc(O)cc3)C(=O)N(Cc3cccc(-c4ccccc4O)c3)C[C@@H]2N1C(=O)NCc1ccccc1 [compound 115]
0.42 ± 0.04	C=CCN1CC(=O)N2[C@@H](Cc3ccc(O)cc3)C(=O)N(Cc3ccccc3SC)C[C@@H]2N1C(=O)NCc1ccccc1 [compound 17]
2.86 ± 0.49	C=CCN1CC(=O)N2[C@@H](Cc3ccc(O)cc3)C(=O)N(Cc3ccc(OC)c(F)c3)C[C@@H]2N1C(=O)NCc1ccccc1 [compound 193]
0.66 ± 0.06	C=CCN1CC(=O)N2[C@@H](Cc3ccc(O)cc3)C(=O)N(Cc3csc4ccc(Cl)cc34)C[C@@H]2N1C(=O)NCc1ccccc1 [compound 43]
0.43 ± 0.08	C=CCN1CC(=O)N2[C@@H](Cc3ccc(O)cc3)C(=O)N(Cc3cccc4c(Cl)c[nH]c34)C[C@@H]2N1C(=O)NCc1ccccc1 [compound 19]
5.41 ± 0.89	C=CCN1CC(=O)N2[C@@H](Cc3ccc(O)cc3)C(=O)N(Cc3cccc(C(=O)N(C)C)c3)C[C@@H]2N1C(=O)NCc1ccccc1 [compound 240]
0.26 ± 0.08	C=CCN1CC(=O)N2[C@@H](Cc3ccc(O)cc3)C(=O)N(Cc3cccc(-c4cccnc4F)c3)C[C@@H]2N1C(=O)NCc1ccccc1 [compound 7]
2.37 ± 0.22	C=CCN1CC(=O)N2[C@@H](Cc3ccc(O)cc3)C(=O)N(Cc3ccnc(-c4ccccc4)n3)C[C@@H]2N1C(=O)NCc1ccccc1 [compound 176]
0.95 ± 0.15	C=CCN1CC(=O)N2[C@@H](Cc3ccc(O)cc3)C(=O)N(Cc3ccccc3N)C[C@@H]2N1C(=O)NCc1ccccc1 [compound 78]
17.2 ± 4.11	C=CCN1CC(=O)N2[C@@H](Cc3ccc(O)cc3)C(=O)N(Cc3cccnc3-c3ccccc3OC)C[C@@H]2N1C(=O)NCc1ccccc1 [compound 165]
2.67 ± 0.28	C=CCN1CC(=O)N2[C@@H](Cc3ccc(O)cc3)C(=O)N(Cc3cccc4ccn(-c5ccccn5)c34)C[C@@H]2N1C(=O)NCc1ccccc1 [compound 187]
15.7 ± 3.22	C=CCN1CC(=O)N2[C@@H](Cc3ccc(O)cc3)C(=O)N(Cc3ccccc3-n3cnnn3)C[C@@H]2N1C(=O)NCc1ccccc1 [compound 164]
2.66 ± 0.74	C=CCN1CC(=O)N2[C@@H](Cc3ccc(O)cc3)C(=O)N(Cc3cccc(-c4ccccc4)n3)C[C@@H]2N1C(=O)NCc1ccccc1 [compound 186]
1.54 ± 0.07	C=CCN1CC(=O)N2[C@@H](Cc3ccc(O)cc3)C(=O)N(Cc3cccc(Cl)c3N(C)C)C[C@@H]2N1C(=O)NCc1ccccc1 [compound 122]
0.34 ± 0.12	C=CCN1CC(=O)N2[C@@H](Cc3ccc(O)cc3)C(=O)N(Cc3cccc(-c4cccnc4)c3)C[C@@H]2N1C(=O)NCc1ccccc1 [compound 12]
2.89 ± 0.5	C=CCN1CC(=O)N2[C@@H](Cc3ccc(O)cc3)C(=O)N(Cc3cccc(C(=O)OCC)n3)C[C@@H]2N1C(=O)NCc1ccccc1 [compound 194]
0.86 ± 0.09	C=CCN1CC(=O)N2[C@@H](Cc3ccc(O)cc3)C(=O)N(Cc3csc4cc(N)ccc34)C[C@@H]2N1C(=O)NCc1ccccc1 [compound 68]
14.1 ± 2.3	C=CCN1CC(=O)N2[C@@H](Cc3ccc(O)cc3)C(=O)N(Cc3cn(CCC)c4ccccc34)C[C@@H]2N1C(=O)NCc1ccccc1 [compound 159]
1.71 ± 0.28	C=CCN1CC(=O)N2[C@@H](Cc3ccc(O)cc3)C(=O)N(Cc3cccc(C#N)c3)C[C@@H]2N1C(=O)NCc1ccccc1 [compound 132]
1.13 ± 0.05	C=CCN1CC(=O)N2[C@@H](Cc3ccc(O)cc3)C(=O)N(Cc3cccc(C#N)c3F)C[C@@H]2N1C(=O)NCc1ccccc1 [compound 97]
6.63 ± 1.35	C=CCN1CC(=O)N2[C@@H](Cc3ccc(O)cc3)C(=O)N(Cc3cccc4c3ncn4CC(N)=O)C[C@@H]2N1C(=O)NCc1ccccc1 [compound 267]

same assay, conditions: Homo sapiens, SW480, read-out: RGA, IC50 (μM) TopF

Structure (SMILES)	IC50 [µM]
C=CCN1CC(=O)N2[C@@H](Cc3ccc(O)cc3)C(=O)N(Cc3csc4c([N+](=O)[O-])cccc34)C[C@@H]2N1C(=O)NCc1ccccc1 [compound 148]	10 ± 1.7

same assay, conditions: Homo sapiens, SW480; read-out: RGA, IC50 (μM) TopF

Structure (SMILES)	IC50 [µM]
C=CCN1CC(=O)N2[C@@H](Cc3ccc(O)cc3)C(=O)N(Cc3cccc4cc[nH]c34)C[C@@H]2N1C(=O)NCc1ccccn1 [compound 205]	3.14 ± 0.68
C=CCN1CC(=O)N2[C@@H](Cc3ccc(OP(=O)(O)O)cc3)C(=O)N(Cc3ccc(F)c4scnc34)C[C@@H]2N1C(=O)NCc1ccc2c(c1)OCO2 [compound 77]	0.94 ± 0.07
C=CCN1CC(=O)N2[C@@H](Cc3ccc(OP(=O)(O)O)cc3)C(=O)N(Cc3csc4ccccc34)C[C@@H]2N1C(=O)NCc1ccccc1 [compound 35]	0.59 ± 0.066
C=CCN1CC(=O)N2[C@@H](Cc3ccc(O)cc3)C(=O)N(Cc3csc4ccc(NC=O)cc34)C[C@@H]2N1C(=O)NCc1ccccc1 [compound 185]	2.61 ± 0.19
C=CCN1CC(=O)N2[C@@H](Cc3ccc(OC(N)=O)cc3)C(=O)N(Cc3ccc(F)cc3F)C[C@@H]2N1C(=O)NCc1ccccc1 [compound 251]	1.14 ± 0.07
C=CCN1CC(=O)N2[C@@H](Cc3ccc(OP(=O)(O)O)cc3)C(=O)N(Cc3ccc(OC)cc3F)C[C@@H]2N1C(=O)NCc1ccccc1 [compound 216]	3.8 ± 1.1
C=CCOc1ccc(CN2C[C@H]3N(C(=O)CN(CC=C)N3C(=O)NCc3ccccc3)[C@@H](Cc3ccc(OP(=O)(O)O)cc3)C2=O)cc1 [compound 136]	1.83 ± 0.32
C=CCN1CC(=O)N2[C@@H](Cc3ccc(OP(=O)(O)O)cc3)C(=O)N(Cc3ccccc3SC)C[C@@H]2N1C(=O)NCc1ccccc1 [compound 42]	0.66 ± 0.0079
C=CCN1CC(=O)N2[C@@H](Cc3ccc(OP(=O)(O)O)cc3)C(=O)N(Cc3cccc4ccnn34)C[C@@H]2N1C(=O)NCc1ccccc1 [compound 92]	1.04 ± 0.18
